Test results: patent US9617244B2, “Antibacterial quinoline derivatives” (JANSSEN PHARMACEUTICA NV, priority 2012, dated 2017)
Converted amounts (≈) assume the structure as drawn.

Experiments:
[1] = tested on: Staphylococcus aureus (ATCC29213); assay: In-vitro anti-bacterial activity, microtitre plate assay, IC90 determination (non-mycobacterial strains); assay type: cell-based; conditions: 90% inhibitory concentration for bacterial growth, resazurin fluorescence; for IC90 STA B29213: 24 hours; for IC90: Staphylococcus aureus, ATCC29213, 24 h, read-out: IC90 STA B29213
Outline: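 Inoculum of about 100 TCID50 (10–60 CFU/well) in Mueller-Hinton broth, serial five-fold compound dilutions, 24 h at 37 °C in air. Growth read by resazurin fluorescence (ex 530/em 590 nm); IC90 in μg/ml as 90% growth inhibition.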

[2] = tested on: Mycobacterium smegmatis (ATCC607); assay: In-vitro anti-bacterial activity against strain M. Smegmatis ATCC607; assay type: cell-based; conditions: 90% inhibitory concentration for bacterial growth, Alamar Blue fluorescence; for IC90 MSM 607: 48 hours
Outline: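 Serial five-fold compound dilutions in BSA-supplemented wells, inoculated with ~250 CFU/well in Mueller-Hinton broth, incubated 48 h at 37 °C, 5% CO2. Growth read by Alamar Blue fluorescence (ex 530/em 590 nm); IC90 in μg/ml.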

COc1nc2ccc(SC)cc2cc1C(c1ccc(Cl)cc1)C1(O)CCNC(Cc2ccc(F)cc2)C1 (stereo not drawn) [Compound 301]
melting point: 170 °C | IC90 STA B29213 [1]: 6.76 µg/mL (≈ 12.6 µM) | IC90 MSM 607 [2]: 6.76 µg/mL (≈ 12.6 µM)

COc1nc2ccc(SC)cc2cc1C(c1ccc(Cl)cc1)C1(O)CCNC(Cc2ccc(F)cc2)C1 (stereo not drawn) [Compound 302]
melting point: 120 °C | IC90 STA B29213 [1]: 2.14 µg/mL (≈ 3.98 µM) | IC90 MSM 607 [2]: 1.35 µg/mL (≈ 2.51 µM)

COc1nc2ccc(SC)cc2cc1C(c1cccc(Cl)c1)C1(O)CCNC(Cc2ccc(F)cc2F)C1 (stereo not drawn) [Compound 318]
melting point: 133 °C | IC90 STA B29213 [1]: 1.76 µg/mL (≈ 3.17 µM) | IC90 MSM 607 [2]: 1.76 µg/mL (≈ 3.17 µM)

COc1nc2ccc(Br)cc2cc1C(c1ccc(Cl)cc1)C1(O)CCNC(Cc2ccc(F)cc2F)C1 (stereo not drawn) [Compound 320]
melting point: 159 °C | IC90 STA B29213 [1]: 3.71 µg/mL (≈ 6.31 µM) | IC90 MSM 607 [2]: 2.95 µg/mL (≈ 5.02 µM)

COc1nc2ccc(Br)cc2cc1C(c1ccc(Cl)cc1)C1(O)CCNC(Cc2ccc(F)cc2)C1 (stereo not drawn) [Compound 337]
melting point: 186 °C | IC90 STA B29213 [1]: 1.80 µg/mL (≈ 3.16 µM) | IC90 MSM 607 [2]: 0.90 µg/mL (≈ 1.58 µM)

COc1nc2ccc(Br)cc2cc1C(c1ccc(Cl)cc1)C1(O)CCNC(Cc2ccc(F)cc2)C1 (stereo not drawn) [Compound 338]
melting point: 198 °C | IC90 STA B29213 [1]: 1.80 µg/mL (≈ 3.16 µM) | IC90 MSM 607 [2]: 1.43 µg/mL (≈ 2.51 µM)

COc1nc2ccc(Br)cc2cc1C(c1ccc(Cl)cc1)C1(O)CCNC(Cc2ccc(F)cc2)C1 (stereo not drawn) [Compound 339]
melting point: 176 °C | IC90 STA B29213 [1]: 3.60 µg/mL (≈ 6.32 µM) | IC90 MSM 607 [2]: 1.80 µg/mL (≈ 3.16 µM)

COc1nc2ccc(Br)cc2cc1C(c1ccc(Cl)cc1)C1(O)CCNC(Cc2ccc(F)cc2)C1 (stereo not drawn) [Compound 340]
melting point: 132 °C | IC90 STA B29213 [1]: 2.86 µg/mL (≈ 5.02 µM) | IC90 MSM 607 [2]: 1.43 µg/mL (≈ 2.51 µM)

COc1nc2ccc(Cl)cc2cc1C(c1ccc(SC)cc1)C1(O)CCNC(c2ccc(F)cc2C)C1 (stereo not drawn) [Compound 351]
melting point: 128 to 130 °C | IC90 STA B29213 [1]: 1.70 µg/mL (≈ 3.17 µM) | IC90 MSM 607 [2]: 1.35 µg/mL (≈ 2.51 µM)

COc1nc2ccc(Cl)cc2cc1C(c1ccc(SC)cc1)C1(O)CCNC(c2ccc(F)cc2C)C1 (stereo not drawn) [Compound 352]
melting point: 123 to 125 °C | IC90 STA B29213 [1]: 1.70 µg/mL (≈ 3.17 µM) | IC90 MSM 607 [2]: 0.85 µg/mL (≈ 1.58 µM)

COc1nc2ccc(Br)cc2cc1C(c1ccc(Cl)cc1)C1(O)CCNC(Cc2ccc(F)cc2)C1 (stereo not drawn) [Compound 355]
melting point: 190 °C | IC90 STA B29213 [1]: 3.60 µg/mL (≈ 6.32 µM) | IC90 MSM 607 [2]: 1.43 µg/mL (≈ 2.51 µM)

COc1nc2ccc(Br)cc2cc1C(c1ccc(Cl)cc1)C1(O)CCNC(Cc2ccc(F)cc2)C1 (stereo not drawn) [Compound 356]
melting point: 98 °C | IC90 STA B29213 [1]: 1.80 µg/mL (≈ 3.16 µM) | IC90 MSM 607 [2]: 1.80 µg/mL (≈ 3.16 µM)

COc1nc2ccc(Br)cc2cc1C(c1ccc(Cl)cc1)C1(O)CCNC(Cc2ccc(F)cc2)C1 (stereo not drawn) [Compound 357]
melting point: 104 °C | IC90 STA B29213 [1]: 5.70 µg/mL (≈ 10 µM) | IC90 MSM 607 [2]: 3.60 µg/mL (≈ 6.32 µM)

COc1nc2ccc(Br)cc2cc1C(c1ccc(Cl)cc1)C1(O)CCNC(Cc2ccc(F)cc2)C1 (stereo not drawn) [Compound 358]
melting point: 138 °C | IC90 STA B29213 [1]: 3.60 µg/mL (≈ 6.32 µM) | IC90 MSM 607 [2]: 1.43 µg/mL (≈ 2.51 µM)

COc1nc2ccc(Cl)cc2cc1C(c1ccc(S(C)(=O)=O)cc1)C1(O)CCNC(c2ccc(F)cc2C)C1 (stereo not drawn) [Compound 366]
melting point: 146 °C | IC90 STA B29213 [1]: 7.16 µg/mL (≈ 12.6 µM) | IC90 MSM 607 [2]: 3.59 µg/mL (≈ 6.31 µM)

COc1nc2ccc(Cl)cc2cc1C(c1ccc(S(C)(=O)=O)cc1)C1(O)CCNC(c2ccc(F)cc2C)C1 (stereo not drawn) [Compound 367]
melting point: 175 °C | IC90 STA B29213 [1]: 7.16 µg/mL (≈ 12.6 µM) | IC90 MSM 607 [2]: 5.69 µg/mL (≈ 10 µM)

C=CC1CC(O)(C(c2ccc(Cl)cc2)c2cc3cc(Br)ccc3nc2OC)CCN1 (stereo not drawn) [Compound 371]
melting point: 158 °C | IC90 [1]: 3.08 µg/mL (≈ 6.31 µM) | IC90 MSM 607 [2]: 2.44 µg/mL (≈ 5 µM)

C=CC1CC(O)(C(c2ccc(Cl)cc2)c2cc3cc(Br)ccc3nc2OC)CCN1 (stereo not drawn) [Compound 372]
melting point: 194 °C | IC90 STA B29213 [1]: 6.14 µg/mL (≈ 12.6 µM) | IC90 MSM 607 [2]: 3.08 µg/mL (≈ 6.31 µM)

C=CC1CC(O)(C(c2ccc(Cl)cc2)c2cc3cc(Br)ccc3nc2OC)CCN1 (stereo not drawn) [Compound 373]
melting point: 193 °C | IC90 STA B29213 [1]: 3.08 µg/mL (≈ 6.31 µM) | IC90 MSM 607 [2]: 3.08 µg/mL (≈ 6.31 µM)

C=CC1CC(O)(C(c2ccc(Cl)cc2)c2cc3cc(Br)ccc3nc2OC)CCN1 (stereo not drawn) [Compound 374]
melting point: 162 °C | IC90 STA B29213 [1]: 3.08 µg/mL (≈ 6.31 µM) | IC90 MSM 607 [2]: 1.23 µg/mL (≈ 2.52 µM)

COc1nc2ccc(S(=O)(=O)C(C)C)cc2cc1C(c1ccc(Cl)cc1)C1(O)CCNC(Cc2ccccc2)C1 (stereo not drawn) [Compound 386]
melting point: 125 °C | IC90 STA B29213 [1]: 3.65 µg/mL (≈ 6.3 µM) | IC90 MSM 607 [2]: 2.90 µg/mL (≈ 5.01 µM)

COc1nc2ccc(S(=O)(=O)C(C)C)cc2cc1C(c1ccc(Cl)cc1)C1(O)CCNC(Cc2ccccc2)C1 (stereo not drawn) [Compound 387]
melting point: 204 °C | IC90 STA B29213 [1]: 14.55 µg/mL (≈ 25.1 µM) | IC90 MSM 607 [2]: 7.29 µg/mL (≈ 12.6 µM)

COc1nc2ccc(S(C)(=O)=O)cc2cc1C(c1ccc(Cl)cc1)C1(O)CCNC(Cc2ccc(F)cc2)C1 (stereo not drawn) [Compound 388]
melting point: 103 °C | IC90 STA B29213 [1]: 1.80 µg/mL (≈ 3.16 µM) | IC90 MSM 607 [2]: 3.59 µg/mL (≈ 6.31 µM)

COc1nc2ccc(S(C)(=O)=O)cc2cc1C(c1ccc(Cl)cc1)C1(O)CCNC(Cc2ccc(F)cc2)C1 (stereo not drawn) [Compound 389]
melting point: 128 °C | IC90 STA B29213 [1]: 7.16 µg/mL (≈ 12.6 µM) | IC90 MSM 607 [2]: 7.16 µg/mL (≈ 12.6 µM)

COc1nc2ccc(S(C)(=O)=O)cc2cc1C(c1ccc(Cl)cc1)C1(O)CCNC(Cc2ccc(F)cc2)C1 (stereo not drawn) [Compound 390]
melting point: 170 °C | IC90 STA B29213 [1]: 14.30 µg/mL (≈ 25.1 µM) | IC90 MSM 607 [2]: 11.36 µg/mL (≈ 20 µM)

COc1nc2ccc(S(C)(=O)=O)cc2cc1C(c1ccc(Cl)cc1)C1(O)CCNC(Cc2ccc(F)cc2)C1 (stereo not drawn) [Compound 391]
melting point: 120 °C | IC90 STA B29213 [1]: 3.59 µg/mL (≈ 6.31 µM) | IC90 MSM 607 [2]: 1.80 µg/mL (≈ 3.16 µM)

C=CCC1CNCCC1(O)C(c1ccc(Cl)cc1)c1cc2cc(Br)ccc2nc1OC (stereo not drawn) [Compound 392]
melting point: 162 to 164 °C | IC90 [1]: 6.32 µg/mL (≈ 12.6 µM) | IC90 ([2]; Mycolicibacterium smegmatis, ATCC607, 48 h, read-out: IC90 MSM 607): 3.17 µg/mL (≈ 6.32 µM)

C=CCC1CNCCC1(O)C(c1ccc(Cl)cc1)c1cc2cc(Br)ccc2nc1OC (stereo not drawn) [Compound 393]
melting point: 159 to 161 °C | IC90 STA B29213 [1]: 10.01 µg/mL (≈ 19.9 µM) | IC90 MSM 607 [2]: 6.32 µg/mL (≈ 12.6 µM)
